In patent US20240076299A1, “TUBERCULATIN ANALOGS AS ANTIVIRAL AGENTS” (priority 2020, published 2024):
Where two headings read alike, the source gives them in different places.

How the values were obtained:
[1] = test system: HIV; experiment: microbe, parasite or virus in culture; type: cell-based, HIV-1
[2] = test system: AIV; experiment: microbe, parasite or virus in culture; type: cell-based, avian influenza virus (H5N1); settings: Influenza A virus, read-out: EC50 (nM) AIV
[3] = test system: VSV; experiment: microbe, parasite or virus in culture; type: cell-based; settings: Vesicular stomatitis virus, read-out: EC50 (nM) VSV
[4] = in vitro; settings: human
[5] = test system: SARS-CoV-2; experiment: microbe, parasite or virus in culture; settings: for inhibition at 2 µM: Severe acute respiratory syndrome coronavirus 2, 48 h
[6] = Cytotoxicity evaluation using the SRB assay; settings: human, triplicate
[7] = test system: SARS-CoV-2
[8] = read-out: EC50 (2000 nM) SARS-COV-2
[9] = CC50 (nM) A549, Table 2, host A549 cells
[10] = CC50 (nM), Table 1, inhibition of cell growth of host A549 cells by 50%
[11] = read-out: EC50 (2000 nM) SARS-COV-2, % inhibitory effect at 2000 nM against SARS-CoV-2, triplicate
[12] = A549 cells, CC50 (nM), Table 1, inhibition of cell growth of host A549 cells by 50%
[13] = A549 cells, CC50 (nM) A549, Table 2, host A549 cells

| Compound | EC50 ([1]; Human immunodeficiency virus 1) [µM] | EC50 [2] [nM] | EC50 [3] [nM] | CC50 at 2 days [6, 10] [nM] | inhibition at 2 µM [5, 11] [%] | further results |
| --- | --- | --- | --- | --- | --- | --- |
| COc1cc2c(O)c3c(c(-c4ccc5c(c4)OCO5)c2cc1OC)C(=O)OC3 [Diphyllin (7), diphyllin, reference compound] | 0.17 | 2.36 | 11.2 |  |  | CC50 at 2 days ([4]; CC50 (nM)): 2460 nM; CC50 at 2 days ([4]; CC50 (nM) A549): 1980 nM; inhibition at 2 µM [5, 8]: 94.6% |
| COc1cc2c(O[C@H]3OC[C@@]4(CO)OC(C)(C)O[C@@H]34)c3c(c(-c4ccc5c(c4)OCO5)c2cc1OC)C(=O)OC3 [Compound 10] | 0.00097 | 0.75 | 1.5 | 188 | 95.6 | CC50 at 2 days [6, 9]: 400 nM |
| COc1cc2c(O[C@@H]3OC[C@@]4(COC(C)=O)OC(c5ccccc5)O[C@@H]34)c3c(c(-c4ccc5c(c4)OCO5)c2cc1OC)C(=O)OC3 (some centres unmarked) [Compound 20] | 0.28 | 39.9 | 53.8 | 2580 | > 80 | activity against SARS-CoV-2 (conclusion) [7]: active molecules; CC50 at 2 days [6, 9]: 1570 nM |
| COc1cc2c(O[C@H]3OC[C@@]4(CN(C)C)OC(C)(C)O[C@@H]34)c3c(c(-c4ccc5c(c4)OCO5)c2cc1OC)C(=O)OC3 [Compound 31] | 0.177 |  |  | 1400 | 91.9 |  |
| COc1cc2c(OC3OCC(O)(CO)C3O)c3c(c(-c4cc5c(cc4O)OCO5)c2cc1OC)C(=O)OC3 (single isomer, unassigned) [Compound 45] |  |  |  |  |  | EC50 [1]: 2.73 µM; antiviral activity of R atropisomer versus corresponding S atropisomer [1]: much more potent antiviral activities; CC50 at 2 days ([4]; CC50 (nM)): 46800 nM |
| COc1cc2c(O[C@@H]3OC[C@@]4(CO)OC(c5ccccc5)O[C@@H]34)c3c(c(-c4ccc5c(c4)OCO5)c2cc1OC)C(=O)OC3 (some centres unmarked) [Compound 17] | 0.251 |  |  |  | 66.2 | CC50 at 2 days [6, 12]: 2240 nM |
| COc1cc2c(O[C@H]3OC[C@](O)(COC(C)=O)[C@H]3O)c3c(c(-c4ccc5c(c4)OCO5)c2cc1OC)C(=O)OC3 [Compound 23] | 0.0434 | 0.3 | 1.24 | 736 | 96.7 | CC50 at 2 days [6, 9]: 158 nM |
| COc1cc2c(O[C@H]3OC[C@@]4(CN5CCOCC5)OC(C)(C)O[C@@H]34)c3c(c(-c4ccc5c(c4)OCO5)c2cc1OC)C(=O)OC3 [Compound 30] | 0.018 |  |  |  |  | CC50 at 2 days ([4]; CC50 (nM)): 1190 nM; inhibition at 2 µM [5, 8]: 92.7% |
| COc1cc2c(O[C@H]3OC[C@@]4(CO)OC(c5ccccc5)O[C@@H]34)c3c(c(-c4cc5c(cc4OCc4ccccc4)OCO5)c2cc1OC)C(=O)OC3 (some centres unmarked) [Compound 44] | > 25 |  |  |  |  | CC50 at 2 days [6, 12]: > 25000 nM |
| COc1cc2c(OC3OC[C@@]4(CO[Si](c5ccccc5)(c5ccccc5)C(C)(C)C)OC(c5ccccc5)O[C@@H]34)c3c(c(-c4cc5c(cc4OCc4ccccc4)OCO5)c2cc1OC)C(=O)OC3 (some centres unmarked) [Compound 42] | > 25 |  |  |  |  | CC50 at 2 days [6, 12]: > 25000 nM |
| Cc1ccnc2c1NC(=O)c1cccnc1N2C1CC1 [Nevirapine, reference compound] | 0.0358 |  |  | > 200 |  |  |
| COc1cc2c(O[C@H]3OC[C@@]4(COC(C)=O)OC(C)(C)O[C@@H]34)c3c(c(-c4ccc5c(c4)OCO5)c2cc1OC)C(=O)OC3 [Compound 12] | 0.0269 |  |  | 472 | 96.3 | activity against SARS-CoV-2 (conclusion) [7]: active molecules |
| COc1cc2c(O[C@@H]3OC[C@@]4(COC(C)=O)OC(C)(C)O[C@@H]34)c3c(c(-c4ccc5c(c4)OCO5)c2cc1OC)C(=O)OC3 [Compound 11] | 0.208 |  |  | 1260 | > 80 | activity against SARS-CoV-2 (conclusion) [7]: active molecules |
| COc1cc2c(OC3OCC(O)(CO)C3OC3OCC(O)C(O)C3O)c3c(c(-c4cc5c(cc4O)OCO5)c2cc1OC)C(=O)OC3 (single isomer, unassigned) [Compound 49] |  |  |  |  |  | EC50 [1]: 5.45 µM; antiviral activity of R atropisomer versus corresponding S atropisomer [1]: much more potent antiviral activities; CC50 at 2 days ([4]; CC50 (nM)): 23500 nM |
| COc1cc2c(O[C@H]3OC[C@@]4(COC(=O)c5cccnc5)OC(C)(C)O[C@@H]34)c3c(c(-c4ccc5c(c4)OCO5)c2cc1OC)C(=O)OC3 [Compound 29] | 0.0918 | 8.66 | 19.9 |  | 95.6 | CC50 at 2 days [6, 13]: 483 nM; CC50 at 2 days [6, 12]: 381 nM |
| CCOC(=O)c1c(CSc2ccccc2)n(C)c2cc(Br)c(O)c(CN(C)C)c12 [arbidol, reference compound] |  |  |  |  |  | IC50 ([5]; Severe acute respiratory syndrome coronavirus 2, HepG2, read-out: IC50 against SARS-CoV-2 pseudovirion): 5.23 µM |
| COc1cc2c(O[C@H]3OC[C@@]4(CN)OC(C)(C)O[C@@H]34)c3c(c(-c4ccc5c(c4)OCO5)c2cc1OC)C(=O)OC3 [Compound 26] | 0.917 | 0.79 | 0.58 | 4550 | > 80 | activity against SARS-CoV-2 (conclusion) [7]: active molecules; CC50 at 2 days [6, 9]: 2.66 nM |
| COc1cc2c(O[C@@H]3OC[C@@]4(CO)OC(C)(C)O[C@@H]34)c3c(c(-c4ccc5c(c4)OCO5)c2cc1OC)C(=O)OC3 [Compound 9] | 0.0346 |  |  | 1180 | > 80 | activity against SARS-CoV-2 (conclusion) [7]: active molecules |
| COc1cc2c(OC3OCC(O)(COC4OCC(O)C(O)C4O)C3OC3OCC(O)C(O)C3O)c3c(c(-c4cc5c(cc4O)OCO5)c2cc1OC)C(=O)OC3 (single isomer, unassigned) [Compound 51] | 15.7 |  |  | > 25000 |  | antiviral activity of R atropisomer versus corresponding S atropisomer [1]: much more potent antiviral activities |
| COc1cc2c(O[C@H]3OC[C@@]4(COC(C)=O)OC(c5ccccc5)O[C@@H]34)c3c(c(-c4ccc5c(c4)OCO5)c2cc1OC)C(=O)OC3 (some centres unmarked) [Compound 21] | 0.126 | 6.25 | 12 | 328 | 96.3 | CC50 at 2 days [6, 9]: 93 nM |
| COc1cc2c(O[C@H]3OC[C@@]4(COC(=O)c5ccncc5)OC(C)(C)O[C@@H]34)c3c(c(-c4ccc5c(c4)OCO5)c2cc1OC)C(=O)OC3 [Compound 28] | 0.486 | 16.7 | 56.1 |  |  | CC50 at 2 days ([4]; CC50 (nM)): 2210 nM; CC50 at 2 days ([4]; CC50 (nM) A549): 560 nM; inhibition at 2 µM [5, 8]: 93% |
| COc1cc2c(O[C@@H]3OC[C@@]4(CO)OC(c5ccccc5)O[C@@H]34)c3c(c(-c4cc5c(cc4OCc4ccccc4)OCO5)c2cc1OC)C(=O)OC3 (some centres unmarked) [Compound 43] | > 25 |  |  |  |  | CC50 at 2 days [6, 12]: > 25000 nM |
| COc1cc2c(O[C@H]3OC[C@@]4(CO)OC(c5ccccc5)O[C@@H]34)c3c(c(-c4ccc5c(c4)OCO5)c2cc1OC)C(=O)OC3 (some centres unmarked) [Compound 18] | 0.00737 | 0.71 | 2.43 |  | 98.3 | CC50 at 2 days [6, 13]: 208 nM; CC50 at 2 days [6, 12]: 184 nM |
| COc1cc2c(O[C@H]3OC[C@](O)(CO)[C@H]3O)c3c(c(-c4ccc5c(c4)OCO5)c2cc1OC)C(=O)OC3 [Compound 19] | 0.0119 | 70 | 144 | 368 | 98.3 | CC50 at 2 days [6, 9]: 2100 nM |
| COc1cc2c(OC3OCC(O)(COC4OCC(O)C(O)C4O)C3OC3OCC(O)C(OC4OCC(O)(CO)C4O)C3O)c3c(c(-c4cc5c(cc4O)OCO5)c2cc1OC)C(=O)OC3 (single isomer, unassigned) [Compound 53] | 14.7 |  |  |  |  | antiviral activity of R atropisomer versus corresponding S atropisomer [1]: much more potent antiviral activities; CC50 at 2 days ([4]; CC50 (nM)): > 25000 nM |
| COc1cc2c(OC3OC[C@@]4(CO[Si](c5ccccc5)(c5ccccc5)C(C)(C)C)OC(c5ccccc5)O[C@@H]34)c3c(c(-c4ccc5c(c4)OCO5)c2cc1OC)C(=O)OC3 (some centres unmarked) [Compound 16] | 6.58 |  |  |  | 32.4 | CC50 at 2 days [6, 12]: > 20000 nM |
